Assay results: patent US4504481A, “Benzhydrylpiperazine derivatives, process for their preparation and pharmaceutical compositions containing them” (Richter Gedeon Vegyeszeti Gyar Rt., priority 1982, dated 1985)

Assays:
[1] = system: aminopyrine demethylase; assay: aminopyrine demethylase activity of liver after oral treatment (formaldehyde formed); type: in vivo, Female H.-Wistar rats; conditions: rat liver, 2 hours after single 40 mg./kg. oral dose; ± S.E.; control 260.7 ± 11.2 nmoles/g. of liver/min.
Procedure: (§1) The enzyme inhibiting activity of the compounds of the formula (I) was further tested by determining the activity of the polysubstrate liver monooxygenase enzyme system after treatment with placebo and the compounds according to the invention, respectively. Female H.-Wistar rats weighing 50 to 60 g. each were administered a single 40 mg./kg. oral dose of the test compounds. Two hours after treatment the animals were decapitated and the livers were removed. After rinsing with a physiological saline solution at 0° C., drying and weighing, the livers were homogenized in a 0.1 molar Tris-HCl buffer (pH=7.4), containing 1.15% of potassium chloride at 0° C., centrifuged at 9000 g for 20 minutes, and the supernatant (postmitochondrial fraction) was used for further investigations. The microsomal fraction was prepared following the method developed by Cinti D. L. et al.: Biochem. Pharmacol., 21, 3249 (1972). The activity of aniline hydroxylase was determined from the velocity of p-amino-phenol formation according to Chabra R. S. et al.: Toxicol. Appl. Pharmacol. 22, 50 (1972). The activity of the aminopyrine demethylase was measured from the amount of the formaldehyde formed, according to Gourlay G. K. et al: Biochem. Pharmacol., 27, 965 (1978). The control groups were treated with placebo. The results are shown in Table 2, expressed in percentage of the control.

[2] = acute oral toxicity; conditions: in vivo; rat, single 500 mg./kg. oral dose, 14 days observation, n=10; read-out: Perished animals
Procedure: The acute toxicity of the compounds having the formula (I) was tested on H-Wistar rats of both sexes, each weighing 160 to 180 g. The compounds were administered in a single 500 mg./kg. oral dose.

[3] = system: aniline hydroxylase; assay: aniline hydroxylase activity of liver after oral treatment (p-amino-phenol formation); type: in vivo, Female H.-Wistar rats; conditions: rat liver, 2 hours after single 40 mg./kg. oral dose; ± S.E.; control 19.8 ± 0.53 nmoles/g. of liver/min.
Procedure: as §1

[4] = system: hexobarbital oxidase; assay: in vivo hexobarbital narcosis period (change of hexobarbital oxidase activity); parameters: species or system Female Hann.-Wistar rats; conditions: rat, hexobarbital sodium 60 mg./kg. i.v., ± S.E., n=10; for Hexobarbital narcosis period in % of control, 1 hour: 1 hour after administration, control 44.3 ± 5.67 min.; for Hexobarbital narcosis period in % of control, 24 hours: 24 hours after administration, control 47.0 ± 5.21 min.
Procedure: The enzyme inhibiting activity of the new compounds was tested in vivo, by measuring the change of hexobarbital oxidase activity. Female Hann.-Wistarrats, each weighing 50 to 60 g. were treated orally with a single 40 mg./kg. dose of the test compound. One and 24 hours after the administration of the active ingredient, the animals were narcotized with a 60 mg./kg. i.v. dosage of hexobarbital sodium, and the time elapsed until complete wakening was measured (Noordhoek, J.: Eur. J. Pharmacol., 3, 242 (1968)). The data were recorded, and the mean values, the standard errors as well as the percentage increase with respect to the controls were calculated for each group. […] The hexobarbital concentration of the plasm, measured on the instant wakening, was the same for both the treated and the control animals, and thus the increase of narcosis period was not due to a certain central nervous interaction (Jori, A. et al.: Biochem. Pharmacol., 19, 2687 (1970)).
The control group was treated with placebo.

[5] = H. Ippen: Index Pharmacorum (1970); cited from earlier work

| SMILES | Aminopyrine demethylase activity, in percentage of the control [1] | mortality at 336 h [2] [%] | Aniline hydroxylase activity, in percentage of the control [3] | Hexobarbital narcosis period in % of control, 1 hour ([4]; single oral dose 40 mg./kg.) | Hexobarbital narcosis period in % of control, 24 hours ([4]; single oral dose 40 mg./kg.) | anticonvulsive side effect [5] | Hexobarbital narcosis period in % of control, 1 hour ([4]; reference dose 100 mg./kg.) | Hexobarbital narcosis period in % of control, 24 hours ([4]; reference dose 100 mg./kg.) |
| --- | --- | --- | --- | --- | --- | --- | --- | --- |
| CCC(O)(c1ccc(OCCCN2CCN(C(c3ccccc3)c3ccccc3)CC2)cc1)c1ccccc1OC (stereo not drawn) [A, α-ethyl-α-(2-methoxyphenyl)-4-[3-(4-benzhydryl-piperazin-1-yl)-propoxy]-benzylalcohol] | 71 ± 8.1 % of control | 0 | 72 ± 5.8 % of control | 116 ± 6.7 % of control | 172 ± 8.7 % of control | – | – | – |
| CCCC(C(=O)OCCN(CC)CC)(c1ccccc1)c1ccccc1 [Proadiphene, (2-diethylaminoethyl)-α,α-diphenyl valerate, reference compound] | – | 90 | – | – | – | exerted an anticonvulsive side effect | 241 ± 9.6 % of control | 44 ± 5.7 % of control |
